Reference: paper PMC8145704, “Conformational Plasticity of Hepatitis B Core Protein Spikes Promotes Peptide Binding Independent of the Secretion Phenotype” (Microorganisms, 2021)
“Also recorded” adds a separate entry of the source. Like-named read-outs stand apart in the source and are kept apart here. Ends that are not written are not given here.

Key:
[1] = biological target: T1, WT-HBc capsids (hepatitis B core protein) (Hepatitis B virus genotype D subtype ayw, UniProt P03146); assay type: binding, Hepatitis B virus (genotype D; strain ayw); details: for KD: N-terminally unmodified, terminally amidated peptides, dnb = did not bind HBc, SLLGRM fitted with stoichiometry fixed to 0.25
T1 construct: these predictions are also valid for full-length variants with randomly packaged host–RNA; made in house; host or cells: E. coli BL21 (DE3) Star

[2] = for solubility (soluble up to): no buffer stated at this place, peptides were dissolved in ITC dialysis buffer, pH 7.5
[3] = biological target: F97L-HBc capsids (Hepatitis B virus genotype D subtype ayw, UniProt P03146, F97L); test: Isothermal titration calorimetry (ITC) of peptide binding to F97L-HBc capsids; design: species or system Hepatitis B virus (genotype D; strain ayw); details: 20 °C, ITC buffer 2, mean ± SD of 5 repeats
[4] = biological target: L60V-HBc capsids (Hepatitis B virus genotype D subtype ayw, UniProt P03146, L60V); test: Isothermal titration calorimetry (ITC) of peptide binding to L60V-HBc capsids; design: species or system Hepatitis B virus (genotype D; strain ayw); details: 20 °C, ITC buffer 2, stoichiometry fixed to 0.5, mean ± SD of 3 repeats
[5] = biological target: P5T-HBc capsids (Hepatitis B virus genotype D subtype ayw, UniProt P03146, P5T); test: Isothermal titration calorimetry (ITC) of peptide binding to P5T-HBc capsids; design: species or system Hepatitis B virus (genotype D; strain ayw); details: 20 °C, ITC buffer 2, mean ± SD of 6 repeats
[6] = test system: WT-HBc capsids; details: GRMKG added at 10-fold molar excess; SLLGRM sample taken at the end of the ITC experiment (more than 95% of binding sites occupied)
[7] = ITC, 37 °C, ITC buffer 1, single repeat, ± fit error
[8] = ITC, 20 °C, ITC buffer 2, mean ± SD of 6 repeats
[9] = ITC, 20 °C, ITC buffer 2, single repeat, ± fit error

CSCC[C@H](NC(=O)[C@H](CCCNC(=N)N)NC(=O)CNC(=O)[C@H](CC(C)C)NC(=O)[C@H](CC(C)C)NC(=O)[C@H](CO)NC(=O)[C@H](CCCNC(=N)N)NC(=O)[C@H](Cc1c[nH]cn1)NC(=O)[C@@H](N)CCSC)C(=O)N[C@@H](CCCCN)C(=O)NCC(=O)N[C@@H](C)C(N)=O [P1]
∆ST ([1]; ITC, 37 °C, ITC buffer 1, single repeat): -2.5 kcal/mol
Ratio Peptide/HBc [1, 7]: 0.45 ± 0.02
∆H [1, 7]: -9.0 ± 0.6 kcal/mol
aggregation of HBc capsids caused by the peptide ([1]; in words, endothermic contribution at higher P1 concentrations in ITC (37 °C, ITC buffer 1) attributed to aggregation): aggregation of P1 and capsids; also recorded: causes aggregation of HBc capsids
solubility (soluble up to) [2]: up to 8 mM

CSCC[C@H](NC(=O)[C@H](CCCNC(=N)N)NC(=O)CNC(=O)[C@H](CC(C)C)NC(=O)[C@H](CC(C)C)NC(=O)[C@H](CO)NC(=O)CN)C(=O)N[C@@H](CCCCN)C(=O)NCC(=O)N[C@@H](C)C(N)=O [P2]
∆H [3]: -9.9 ± 1.0 kcal/mol
∆ST [3]: -4.7 ± 0.9 kcal/mol
∆H [1, 8]: -14.4 ± 1.6 kcal/mol
∆ST [1, 8]: -8.8 ± 1.6 kcal/mol
∆H [4]: -6.6 ± 1.2 kcal/mol
∆ST [4]: -1.4 ± 1.3 kcal/mol
∆H [5]: -7.7 ± 0.8 kcal/mol
∆ST [5]: -2.1 ± 0.9 kcal/mol
solubility compared with the other peptide, in words ([2]; P2 compared with the longer P1): better soluble
solubility (soluble up to) [2]: up to 8 mM

GRMKG
KD [1, 9]: no measurable affinity and dnb
association of peptide with capsids in the cryo-EM map [6]: no association

SLKGRM
KD [1, 9]: no binding detected and dnb

SLLGEM
KD [1, 9]: no binding detected and dnb

SLLGRM-NH2 [SLLGRM]
∆ST ([1]; ITC, 20 °C, ITC buffer 2, stoichiometry fixed to 0.25, single repeat): -3.2 kcal/mol
∆H ([1]; ITC, 20 °C, ITC buffer 2, stoichiometry fixed to 0.25, single repeat, ± fit error): -8.3 ± 0.2 kcal/mol
association of peptide with capsids in the cryo-EM map [6]: only the CD spikes bound
